The text below walks through data of PMC6767236, “Selective Cannabinoid 2 Receptor Agonists as Potential Therapeutic Drugs for the Treatment of Endotoxin-Induced Uveitis” (Molecules, 2019).

In one data set the target is T1, human CB2R (Homo sapiens, UniProt P34972).
T1 construct: bgal (beta-galactosidase fragment of the PathHunter system, named only in the cell line's name); host or cells: CHO-K1 (CHOK1hCB2_bgal)
Kind of data set: Radioligand binding assay, human CB2R ([3H]-CP55940). How it is done: Membrane fractions were prepared from cultured CHOK1hCB1_bgal, CHOK1hCB2_bgal, and CHOK1mCB2_bgal cells (DiscoveRx, Fremont, CA, USA) as previously described. Protein concentration was determined using the Pierce bicinchoninic acid (BCA) protein assay (Rochford, IL, USA) as per the manufacturer’s instructions.
Radio ligand-binding assays were carried out as described by Souethoudt et al. (2018). Briefly, membranes from cells expressing human CB2R or CB1R or mouse CB2R and the radioligand, [^3H]-CP55940 (Perkin Elmer, Basel, Switzerland) was used. […] Membrane aliquots containing 5 µg (CHOK1hCB1_bgal) or 1 µg (CHOK1hCB2_bgal) of membrane protein in 100 µL assay buffer (50 mMTris-HCl, 5 mM MgCl2, 0.1% bovine serum albumin (BSA), pH 7.4) were incubated at 30 °C for 1 h, in presence of 3.5 nM of [^3H]-CP55940 (CHOK1hCB1_bgal) or 1.5 nM [^3H]-CP55940 (CHOK1hCB2_bgal). The incubation was terminated by rapid filtration performed on glass microfibre (GF/C) filters (Whatman International, Maidstone, UK), presoaked for 30 min with 0.25% polyethyleneimine (PEI), and using a Brandel harvester (Brandel, Gaithersburg, MD, USA). Filter-bound radioactivity was determined by scintillation spectrometry using a Tri-Carb 2900 TR liquid scintillation counter (Perkin Elmer, Boston, MA, USA). […] In all receptor binding experiments, nonspecific binding was determined in the presence of 1 µM “cold” agonist.

The subject of the next data set is neutrophils from WT mice. Kind of data set: Transwell neutrophil migration assay towards CXCL2, WT neutrophils. The settings on record: for CXCL2-induced neutrophil migration: WT neutrophils pre-treated 30 min, 10 nM CXCL2, RO6851228 at 0.01–1.0 μM. It is filed as cell-based, mouse. The method, then: As described previously, mouse neutrophils were isolated from the bone marrow of mice. Mice were euthanized, femur and tibia were dissected and flushed with ice-cold 1× Hanks balanced salt solution (HBSS; supplemented with […], pH7.5, and 0.5 mM EDTA; Invitrogen) through a sterile filter (70 μm). The suspension was centrifuged at 300× g for 12 min at 4 °C. EasySep™ neutrophil enrichment kit ([…] Technologies Inc., Vancouver, BC, Canada) was used to isolate neutrophils according to the manufacturer’s instructions. The isolated neutrophils were then washed once and the pelleted cells were suspended in RPMI (Invitrogen) containing 1% heat-inactivated fetal bovine serum (FBS, Invitrogen) and used immediately for neutrophil migration experiments or processed for adoptive transfer. The murine neutrophil isolation protocol routinely yields cell suspensions that are >95% pure and viable, as determined by cresyl violet and trypan blue exclusion, respectively.
Neutrophil migration assays were performed using a Transwell migration assay. Isolated neutrophils (1 × 10^5 cells/100 μL) from WT or CB2R^-/- mice were incubated with vehicle (0.01% DMSO), or various concentrations of RO8671304 or RO6851228 at 37 °C, 5% CO2 for 30 min. Cells were then loaded into the upper chamber of 3 μm Transwell inserts (Corning Life Sciences, Corning, NY, USA) coated with 5% FBS. Transwells were placed in 24-well plates containing RPMI (1% FBS) alone or 10^−8 M chemokine C–X–C motif ligand 2 (CXCL2)/[…] (Peprotech, Rocky Hill, NJ, USA). Plates were incubated for 1 h at 37 °C, 5% CO2. To determine the number of neutrophils that migrated from the top to the bottom chamber, the filter was removed and neutrophils in the lower chamber gently pipetted to evenly distribute and sink to the bottom of the pate. An Olympus inverted bright-field microscope with an Infinity 3 camera (Lumenera, Ottawa, ON, Canada) was used to photograph 12 random fields (10× magnification) of each well. The number of migrated neutrophils was then determined using ImageJ. […]

The target of the next data set is T2, human CB1R (Homo sapiens, UniProt P21554).
T2 construct: host or cells: CHO
Put plainly: PathHunter β-arrestin recruitment assay, hCB1R. To be noted: read-out: hCB1R: beta arrestin EC50. It is filed as cell-based. The method, then: Assays were carried out using the PathHunter hCB1_bgal, hCB2_bgal, or mCB2_bgal CHOK1 β-arrestin recruitment assay kit (DiscoveRx, Fremont, CA, USA) as previously described. A total of 5000 cells per well were seeded in 384-well plates (Perkin Elmer, MA, USA) containing 20 μL cell culture medium and incubated for 16–18 h at 37 °C and 5% CO2. Cells were stimulated with 10 μM of each agonist or 11 increasing concentrations and incubated for 90 min at 37 °C and 5% CO2. […] The cells were incubated for 90 min at 37 °C and 5% CO2. Compounds in DMSO stock solutions were added using a HP D300 Digital Dispenser (Tecan, Mannedorf, Switzerland). The final concentration of organic solvent per assay point was ≤ 0.1%. The PathHunter Detection mixture was used, according to the manufacturer’s protocol, to determine the β-galactosidase enzyme activity. Detection mixture, 12 μL per well, was added and the plate was incubated for 1 h in the dark at room temperature. Chemiluminescence, indicated as relative light unit, was measured on an EnVision multilabel plate reader (Perkin Elmer, MA, USA).
(In general: Arrestin recruitment assays detect the binding of arrestin to an activated receptor.)

A short description of the next data set: pKa. Type of data set: physicochemical. To be noted: read-out: pKa (basic).

T1 sequence (P34972 whole entry, the tested form may be a part): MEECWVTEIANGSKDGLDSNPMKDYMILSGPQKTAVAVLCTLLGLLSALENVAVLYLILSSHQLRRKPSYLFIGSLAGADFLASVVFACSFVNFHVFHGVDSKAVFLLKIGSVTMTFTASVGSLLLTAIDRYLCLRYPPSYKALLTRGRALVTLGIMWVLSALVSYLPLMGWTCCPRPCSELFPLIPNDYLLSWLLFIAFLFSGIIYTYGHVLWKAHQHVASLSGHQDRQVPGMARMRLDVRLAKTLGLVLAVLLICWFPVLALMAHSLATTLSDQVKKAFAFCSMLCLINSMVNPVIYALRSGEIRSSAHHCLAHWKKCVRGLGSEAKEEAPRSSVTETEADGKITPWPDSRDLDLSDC
T2 sequence (P21554 whole entry): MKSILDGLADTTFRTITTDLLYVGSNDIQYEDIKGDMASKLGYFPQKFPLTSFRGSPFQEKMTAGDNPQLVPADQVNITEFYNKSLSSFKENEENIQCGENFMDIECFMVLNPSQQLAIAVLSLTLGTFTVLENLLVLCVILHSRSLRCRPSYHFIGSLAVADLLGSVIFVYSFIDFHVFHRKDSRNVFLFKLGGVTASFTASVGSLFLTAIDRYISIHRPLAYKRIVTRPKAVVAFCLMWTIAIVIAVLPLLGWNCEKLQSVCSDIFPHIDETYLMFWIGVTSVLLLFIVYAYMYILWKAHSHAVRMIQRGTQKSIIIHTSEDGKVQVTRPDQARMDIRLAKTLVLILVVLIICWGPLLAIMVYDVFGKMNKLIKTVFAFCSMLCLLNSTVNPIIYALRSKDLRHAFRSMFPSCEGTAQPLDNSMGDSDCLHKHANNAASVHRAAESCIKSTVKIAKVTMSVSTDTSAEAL

On to `CCCCCCC(C)(C)c1cc(OC)c(C2=C[C@H]3CC[C@]2(CO)C3(C)C)c(OC)c1` [HU910, {(1S,4R)-2-[2,6-dimethoxy-4-(2-methyloctan-2-yl)phenyl]-7,7-dimethylbicyclo[2.2.1]hept-2-en-1-yl}methanol, reference compound], for which the “hCB1R Ki/hCB2R Ki” value on human CB2R amounted to 89.
Take `CNC(=O)[C@@H](NC(=O)c1cc(OCC2(C)COC2)c(C2CC2)cn1)C(C)(C)C` [RO6851228, 5-Cyclopropyl-N-[(2S)-3,3-dimethyl-1-(methylamino)-1-oxobutan-2-yl]-4-[(3-methyloxetan-3-yl)methoxy]pyridine-2-carboxamide]: in the data set with neutrophils from WT mice, the “CXCL2-induced neutrophil migration” value is “did not affect CXCL2-induced neutrophil migration”.
A word on the Ki: it is a measure of affinity in units of concentration, obtained from inhibition or displacement. The term EC50 denotes the concentration at which the effect is half-maximal. As a reminder, the pKa is the negative logarithm of the acid dissociation constant. With `CC(C)(C)c1nc(N2CC[C@H](O)C2)c2nnn(Cc3nnnn3C3CC3)c2n1` [RO6871304, (3S)-1-{5-tert-butyl-3-[(1-cyclopropyl-1H-tetrazol-5-yl)methyl]-3H-[1,2, 3]triazolo[4,5-d]pyrimidin-7-yl}pyrrolidin-3-ol], the Ki at human CB2R ([3H]-CP55940 displacement, read-out: hCB2R: Ki) came out at 0.017 µM. On human CB1R, the EC50 was over 30 µM. In addition, in the data set with neutrophils from WT mice (Neutrophil, towards 10 nM CXCL2, WT mouse neutrophils, read-out: IC50 for inhibition of neutrophil migration), the IC50 was 0.0066 µM. Besides, in the data set with neutrophils from WT mice, the “CXCL2-induced neutrophil migration” value was “inhibited neutrophil migration towards CXCL2 in a dose-dependent fashion”. Moreover, the pKa in “pKa” amounted to 2.7.
